Test results published in ChEMBL document CHEMBL1136797, “Fumagalone, a reversible inhibitor of type 2 methionine aminopeptidase and angiogenesis” (J Med Chem, 2003).
Each block holds one compound with its values, some of them ahead of it. The source made the active and inactive calls. No cut-off for these calls is given here.

Columns and labels:
[1] = Inhibition of endothelial cell ploriferation determined in bovine aortic endothelial cell (BAEC); format: functional, cell-based, Bos taurus
[2] = molecular target: T1, Methionine aminopeptidase 2 (Homo sapiens, UniProt P50579); assay: In vitro inhibitory activity against purified recombinant human Methionine Aminopeptidase 2 (MetAP2)
Target sequence in this assay (P50579 whole entry): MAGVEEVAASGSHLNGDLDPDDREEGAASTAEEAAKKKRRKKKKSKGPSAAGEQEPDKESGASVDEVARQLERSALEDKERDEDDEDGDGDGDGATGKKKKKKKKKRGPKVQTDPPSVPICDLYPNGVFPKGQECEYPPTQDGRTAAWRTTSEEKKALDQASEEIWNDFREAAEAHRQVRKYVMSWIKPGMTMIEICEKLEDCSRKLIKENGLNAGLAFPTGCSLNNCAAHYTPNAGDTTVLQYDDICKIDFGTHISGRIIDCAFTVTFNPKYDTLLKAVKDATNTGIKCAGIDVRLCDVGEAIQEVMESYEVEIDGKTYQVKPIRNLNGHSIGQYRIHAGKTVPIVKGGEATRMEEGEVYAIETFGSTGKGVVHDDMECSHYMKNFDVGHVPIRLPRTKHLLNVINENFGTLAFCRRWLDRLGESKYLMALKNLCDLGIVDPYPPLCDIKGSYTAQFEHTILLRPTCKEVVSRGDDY

[3] = tested on: Endothelial cell; assay: Inhibition of endothelial cell ploriferation determined in bovine aortic endothelial cell (BAEC); Inactive; format: functional, cell-based; conditions: Bos taurus
[4] = tested on: Endothelial cell; assay: Inhibition of indothelial cell ploriferation determined in bovine aortic endothelial cell (BAEC); Inactive; format: functional, cell-based; conditions: Bos taurus
[5] = molecular target: T1, Methionine aminopeptidase 2
Target sequence in this assay (P50579 2-478 limits assumed): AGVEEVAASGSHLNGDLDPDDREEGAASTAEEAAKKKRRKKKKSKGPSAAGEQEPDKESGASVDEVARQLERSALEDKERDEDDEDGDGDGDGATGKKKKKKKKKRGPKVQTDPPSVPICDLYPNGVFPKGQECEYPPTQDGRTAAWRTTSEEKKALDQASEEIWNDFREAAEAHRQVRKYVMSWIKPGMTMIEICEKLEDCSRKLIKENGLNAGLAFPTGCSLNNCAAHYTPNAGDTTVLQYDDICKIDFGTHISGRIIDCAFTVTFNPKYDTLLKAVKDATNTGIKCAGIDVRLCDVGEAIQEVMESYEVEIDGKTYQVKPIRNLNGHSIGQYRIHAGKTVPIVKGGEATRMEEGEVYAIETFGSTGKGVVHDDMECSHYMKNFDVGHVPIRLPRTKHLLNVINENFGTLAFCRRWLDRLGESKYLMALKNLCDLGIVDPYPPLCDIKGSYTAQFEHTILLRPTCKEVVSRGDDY

[6] = Inhibition of indothelial cell ploriferation determined in bovine aortic endothelial cell (BAEC); format: functional, cell-based, Bos taurus

IC50 [1]: 200 nM
IC50 [2]: 1 nM
Compound: CO[C@@H]1[C@H](OC(=O)/C=C/C=C/C=C/C=C/C(=O)O)CC[C@]2(CO2)[C@H]1[C@@]1(C)O[C@@H]1CC=C(C)C [FUMAGILLIN]

Compound: CO[C@H]1[C@H]([C@@]2(C)O[C@H]2CC=C(C)C)[C@@](O)(C=O)CC[C@@H]1O
NA [3]: inactive

Compound: CO[C@@H]1[C@H](O)CC[C@](O)(C=O)[C@H]1[C@@]1(C)O[C@@H]1CC=C(C)C
NA [4]: inactive

NA [5]: inactive
Compound: CO[C@@H]1C(=O)CC[C@](O)(C[S+]([O-])c2ccccc2)[C@H]1[C@@]1(C)O[C@@H]1CC=C(C)C (some centres not stated)
NA [4]: inactive

IC50 [6]: 52 nM
Compound: CO[C@@H]1C(=O)CC[C@](O)(C=O)[C@H]1[C@@]1(C)O[C@H]1CC=C(C)C
